Converted amounts (≈) assume the structure as drawn. Read-outs that look alike come from different tables or passages of the source.
Assays:
[1] = test system: C. difficile
[2] = test system: S.aureus; format: cell-based, Staphylococcus aureus
Description: (§1) This assay was used to determine the minimum concentration of a test compound (i.e., an antimicrobial peptide described herein) able to inhibit the growth of a bacterial strain of interest. This is a standard method for measuring and comparing the potency of peptide-based antibacterial agents (Steinberg et al., Antimicrobial Agents and Chemotherapy 1997, 41 (8) 1738 - 1742 and Wiegand et al., Nature Protocols 2008, 3, 163-175).
(§2) The MIC is reported in units of μg/mL.
(§3) Bacterial cultures were grown by inoculating Mueller-Hinton Broth (MHB) with 3 or 4 representative colony (typical size, color, and shape) from a bacterial strain grown on a LB agar plate. Inoculated liquid cultures were grown at 37° C. with moderate shaking (200-250 rpm) until bacteria produced a visibly turbid suspension. Bacterial inoculum was approximated by measuring the optical density at 600 nm (0D600) of the bacterial culture against a sterile MHB blank. Typically, OD600=0.10 corresponds to ˜1×10^8 cfu/mL for S.aureus and OD600 =0.15 corresponds to ˜1×10^8 cfu/mL for E.coli.
(§4) Test compounds were prepared as stock solutions in vehicle at a concentration 10 times the highest concentration to be tested for antibacterial activity (usually 320 μg/mL stock solutions). 2x serial dilutions in vehicle (at 10× the final test concentrations) of the test compounds were prepared from the test compound stock solutions in a non-binding 96 well plate.
(§5) In a sterile clear flat bottom 96 well plate, 15 μL of each test compound dilution was added to 135 μL of ˜5×10^5 cfu/mL bacterial culture. Each concentration was tested in duplicate. Each experiment contained positive control wells for bacterial growth (i.e., no test compound added to bacteria) and sterility controls wells (i.e., sterile MHB and no test compounds added). 96 well plates containing bacterial cultures and test compounds were incubated at 37° C. for 16-20 hours with shaking at 200 rpm.
(§6) After incubation, the MIC of each test compound was determined by measuring the OD600 of each well using a plate reader. Wells with OD600 >0.08 were considered to have bacterial growth and wells with OD600<0.08 were considered to have no bacterial growth. The lowest concentration of test agent able to inhibit bacterial growth (0D600<0.08 after 16-20 hours) was defined as the MIC.

[3] = test system: E.coli; format: cell-based, Escherichia coli; conditions: for MIC ratio Coli/Staph: ratio of E. coli MIC to S. aureus MIC
Description: as §1, §2, §3, §4, §5, §6

[4] = test system: E. faecium (3 isolates); format: cell-based, Enterococcus faecium; conditions: 20 h
Description: (§7) The broth microdilution susceptibility assay followed the procedure described by the Clinical and Laboratory Standards Institute (CLSI) in CLSI document M7-A10.
(§8) The following bacteria isolates were tested:
(§9) S.aureus, S.epidermidis, E.faecalis, and E.faecium colonies were grown on TSA (Tryptone Soya Agar; cat.N. P05012A -OXOID) S.pneumoniae and S.pyogenes colonies were grown on TSASB ((TSA) Agar +5% Sheep Blood; cat.N. PB5012A -OXOID). An inoculum was prepared by making a direct saline suspension of isolated colonies selected from an 18 to 24 hours agar plate incubated at 35±2 ° C. in ambient air. The suspension was adjusted to achieve a turbidity equivalent to a 0.5 McFarland turbidity standard (1 to 2 ×10^8 Colony Forming Units (CFU)) and diluted 200 fold within 15 minutes in broth. (S.aureus, S.epidermidis, E.faecalis, and E.faecium were diluted in CAMHB: Mueller Hinton Broth 2, Cation-Adjusted (cat. N. 90922 Fluka); S.pneumoniae and S.pyogenes were diluted in CAMHB +2.5% lysed horse blood. All broth contained 0.002% polysorbate 80.
(§10) 96-well plates were prepared containing 1 μL of the test compound (at 100× desired test concentration in 100% DMSO); compounds were tested at 8 final concentrations, i.e. 16 μg/mL, 8 μg/mL, 4 μg/mL, 2 μg/mL, 1 μg/mL, 0.5 μg/mL, 0.25 μg/mL, and 0.125 μg/mL. 100 μL of the broth dilution was dispensed in each well plate to have a final bacterial concentration in plate of ˜5×10^5 CFU/mL. The plates were incubated at 35±2° C. in ambient air for 20 hours.

[5] = test system: E. faecalis (5 isolates); format: cell-based, Enterococcus faecalis; conditions: 20 h
Description: as §7, §8, §9, §10

[6] = in vitro; format: cell-based; conditions: human, HepG2 cells
Description: Compounds were tested for cytotoxicity to a mammalian cell line HepG2 (Human hepatocyte carcinoma from ECACC (85011430)). Hep G2 cells were seeded into 96-well plates, 7500 cells/well in 100 μl medium (Minimum Essential Medium (Gibco 21090) supplemented with 2 mM L-Glutamine, 1% non-essential amino acids and 10% fetal bovine serum) and incubated for 20 hours at 37° C., 5% CO2. 100 μL of fresh medium containing a test compound or DMSO (for control) at 2× final concentration were added and incubated for 48 hours at 37° C., 5% CO2. The final concentration of DMSO in plate was 1%. At the end of this incubation, 20 μl MTT (Thiazolyl Blue Tetrazolium Bromide) solution 5 mg/ml in H2O (0.5 mg/ml final in well) was added to all wells. Cells were incubated with MTT for 4 hours at 37° C., 5% CO2. After incubation, medium containing MTT was removed; 200 μl of DMSO was added in each well and plates were put on a shaker for 5 minutes. Absorbance was read on a SpectraMax plate reader at 570 nm. Specific absorbance (Specific A570) was calculated by subtracting the mean absorbance values of the blank wells (no HepG2 cells) from each well. Control values were determined from wells containing cells and treated with medium+1% DMSO only (no test compound). % viability was calculated as:
(Specific A570test compound/Specific A570control)×100.

[7] = test system: S. aureus (14 isolates); format: cell-based, Staphylococcus aureus; conditions: 20 h
Description: as §7, §8, §9, §10

[8] = test system: S. pyogenes (2 isolates); format: cell-based, Streptococcus pyogenes; conditions: 20 h
Description: as §7, §8, §9, §10

[9] = test system: S. epidermidis (5 isolates); format: cell-based, Staphylococcus epidermidis; conditions: 20 h
Description: as §7, §8, §9, §10

[10] = test system: S. pneumoniae (8 isolates); format: cell-based, Streptococcus pneumonia; conditions: 20 h
Description: as §7, §8, §9, §10

[11] = test system: B. fragilis

| MIC C. difficile ([1]; anaerobic broth microdilution, read after 44-48 hours, Example 17b) | MIC S. aureus [2] | MIC E. coli [3] | MIC ratio Coli/Staph [3] | E. faecium (3) MIC90 [4] | E. faecalis (5) MIC90 [5] | S. Aureus (14) MIC90 [7] | S. pyogenes (2) MIC90 [8] | S. epidermidis (MIC90) (5) [9] | S. pneumoniae (8) MIC90 [10] | MIC B. fragilis [11] | MIC C. difficile [1] | Structure (SMILES) | viability at 48 h, 100 µM [6] |
| --- | --- | --- | --- | --- | --- | --- | --- | --- | --- | --- | --- | --- | --- |
| <0.03 to 0.06 µg/mL | 0.13 µg/mL (≈ 0.103 µM) | 10 µg/mL (≈ 7.95 µM) | 77 | 0.5 µg/mL | 0.5 µg/mL | 0.25 µg/mL | ≤0.12 µg/mL | ≤0.12 µg/mL | ≤0.12 µg/mL | >32 µg/mL |  | CC[C@H](C)[C@H](NC(=O)[C@@H](Cc1ccccc1)NC)C(=O)N[C@@H](CO)C(=O)N[C@H](CCC(N)=O)C(=O)N[C@@H](C(=O)N[C@H](C(=O)N[C@@H](CO)C(=O)N[C@H]1C(=O)N[C@@H](C)C(=O)N[C@@H](CCCCNC(=N)N)C(=O)N[C@@H]([C@@H](C)CC)C(=O)O[C@H]1C)[C@@H](C)CC)[C@@H](C)CC [Compound 5, H-D-MePhe-Ile-Ser-D-Gln-D-aIle-Ile-Ser-c(D-Thr-Ala-Har-Ile)] | 117% |
|  | 0.03 to 0.06 µg/mL | >16 µg/mL | >530 | ≤0.12 µg/mL | 0.25 µg/mL | ≤0.12 µg/mL | ≤0.12 µg/mL | ≤0.12 µg/mL | ≤0.12 µg/mL | >32 µg/mL | 0.015 to 0.03 µg/mL | CC[C@H](C)[C@H](NC(=O)[C@@H](Cc1ccc(Cl)cc1)NC)C(=O)N[C@@H](CO)C(=O)N[C@H](CCC(N)=O)C(=O)N[C@@H](C(=O)N[C@H](C(=O)N[C@@H](CO)C(=O)N[C@H]1C(=O)N[C@@H](C)C(=O)N[C@@H](CCCCNC(=N)N)C(=O)N[C@@H]([C@@H](C)CC)C(=O)O[C@H]1C)[C@@H](C)CC)[C@@H](C)CC [Compound 70, H-D-MePhe(4-Cl)-Ile-Ser-D-Gln-D-aIle-Ile-Ser-c(D-Thr-Ala-Har-Ile)] | 114% |
|  | 0.03 to 0.06 µg/mL | >16 µg/mL | >530 | 0.5 µg/mL | 0.5 µg/mL | ≤0.12 µg/mL | ≤0.12 µg/mL | ≤0.12 µg/mL | ≤0.12 µg/mL | >32 µg/mL | 0.03 to 0.06 µg/mL | CC[C@H](C)[C@H](NC(=O)[C@@H](Cc1ccccc1)NC)C(=O)N[C@@H](CO)C(=O)N[C@H](CCC(N)=O)C(=O)N[C@@H](C(=O)N[C@H](C(=O)N[C@@H](CO)C(=O)N[C@H]1C(=O)N[C@@H](C)C(=O)N[C@@H](CCCCNCc2ccccc2)C(=O)N[C@@H]([C@@H](C)CC)C(=O)O[C@H]1C)[C@@H](C)CC)[C@@H](C)CC [Compound 71, H-D-MePhe-Ile-Ser-D-Gln-D-aIle-Ile-Ser-c(D-Thr-Ala-Lys(Bn)-Ile)] | 92% |
|  | 0.12 to 0.25 µg/mL | >16 µg/mL | >128 | 0.5 µg/mL | 0.5 µg/mL | 0.25 µg/mL | ≤0.12 µg/mL | ≤0.12 µg/mL | ≤0.12 µg/mL | >32 µg/mL | 0.25 to 0.5 µg/mL | CC[C@H](C)[C@H](NC(=O)[C@@H](Cc1ccccc1)NC)C(=O)N[C@@H](CO)C(=O)N[C@H](CCC(N)=O)C(=O)N[C@@H](C(=O)N[C@H](C(=O)N[C@@H](CO)C(=O)N[C@H]1C(=O)N[C@@H](C)C(=O)N[C@@H](Cc2ccc(NC(=N)N)cc2)C(=O)N[C@@H]([C@@H](C)CC)C(=O)O[C@H]1C)[C@@H](C)CC)[C@@H](C)CC [Compound 72, H-D-MePhe-Ile-Ser-D-Gln-D-aIle-Ile-Ser-c(D-Thr-Ala-Phe(4-guanidino)-Ile)] | 115% |
|  |  |  |  | 0.25 µg/mL | 0.5 µg/mL | 0.5 µg/mL | ≤0.12 µg/mL | 0.25 µg/mL | ≤0.12 µg/mL |  |  | CC[C@H](C)[C@H](NC(=O)[C@@H](Cc1ccccc1)NC)C(=O)N[C@@H](Cc1cccc2ccccc12)C(=O)N[C@H](CCC(N)=O)C(=O)N[C@@H](C(=O)N[C@H](C(=O)N[C@@H](CO)C(=O)N[C@H]1C(=O)N[C@@H](C)C(=O)N[C@@H](CCCCNC(=N)N)C(=O)N[C@@H]([C@@H](C)CC)C(=O)O[C@H]1C)[C@@H](C)CC)[C@@H](C)CC [Compound 73, H-D-MePhe-Ile-lNal-D-Gln-D-aIle-Ile-Ser-c(D-Thr-Ala-Har-Ile)] | 113% |
|  |  |  |  | 2 µg/mL | 2 µg/mL | 0.5 µg/mL | 0.25 µg/mL | 0.5 µg/mL | 0.25 µg/mL |  |  | CC[C@H](C)[C@H](NC(=O)[C@@H](Cc1ccccc1)NC)C(=O)N[C@@H](CO)C(=O)N[C@H](CCC(N)=O)C(=O)N[C@@H](C(=O)N[C@H](C(=O)N[C@@H](CO)C(=O)N[C@H]1C(=O)N[C@@H](C)C(=O)N[C@@H](CCCNC(=N)N)C(=O)N[C@@H]([C@@H](C)CC)C(=O)O[C@H]1C)[C@@H](C)CC)[C@@H](C)CC [[Arg10]teixobactin, reference compound] | 115% |
|  |  |  |  | 1 µg/mL | 2 µg/mL | 0.5 µg/mL | 0.25 µg/mL | 0.5 µg/mL | ≤0.12 µg/mL |  |  | CC[C@H](C)[C@H](NC(=O)[C@@H](Cc1ccccc1)NC)C(=O)N[C@@H](CO)C(=O)N[C@H](CCC(N)=O)C(=O)N[C@@H](C(=O)N[C@H](C(=O)N[C@@H](CO)C(=O)N[C@H]1C(=O)N[C@@H](C)C(=O)N[C@@H](CCCCN)C(=O)N[C@@H]([C@@H](C)CC)C(=O)O[C@H]1C)[C@@H](C)CC)[C@@H](C)CC [[Lys10]teixobactin, reference compound] | 95.6% |

Reference: US20200216493A1, “ANTIMICROBIAL PEPTIDES” (FERRING B.V., priority 2016, published 2020)
